Measurements from ChEMBL document CHEMBL3864191 (ACS Med Chem Lett, 2016).
Several values for one entry are separate records, joined by “and”; a condition that tells them apart may be missing. Equal values may be shown once. Activity calls are given as the source filed them. No cut-off for these calls is given here.

Experiments:
[1] = Cytotoxicity against human non-small cell lung cancer cells assessed as cell growth inhibition after 48 hrs by SRB assay; format: functional; details: Cancer cell lines
[2] = Cytotoxicity against mouse CT26 cells assessed as reduction in cell viability after 72 hrs by MTT assay; format: functional, cell-based
[3] = Cytotoxicity against human NCI60 cells assessed as cell growth inhibition after 48 hrs by SRB assay; format: functional; details: NCI60, 48 h
[4] = Cytotoxicity against human ovarian cancer cells assessed as cell growth inhibition after 48 hrs by SRB assay; format: functional; details: Cancer cell lines
[5] = Cytotoxicity against human melanoma cells assessed as cell growth inhibition after 48 hrs by SRB assay; format: functional
[6] = target: Induced myeloid leukemia cell differentiation protein Mcl-1 (Homo sapiens, UniProt Q07820); assay: Inhibition of FAM-Bid binding to human MCL1 expressed in Escherichia coli BL21 after 30 mins by fluorescence polarization assay
[7] = Cytotoxicity against human DU145 cells assessed as reduction in cell viability after 72 hrs by MTT assay; format: functional, cell-based, DU-145
[8] = cells; details: Homo sapiens, MCF7, 72 h
Description: Cytotoxicity against human MCF7 cells assessed as reduction in cell viability after 72 hrs by MTT assay

[9] = Cytotoxicity against African green monkey Vero cells assessed as reduction in cell viability at 0.33 to 100 uM after 72 hrs by MTT assay; format: toxicity, cell-based; details: chlorocebus sabaeus
[10] = Cytotoxicity against HEK293T cells assessed as reduction in cell viability at 0.33 to 100 uM after 72 hrs by MTT assay; format: toxicity, cell-based; details: human, hek-293t
[11] = Cytotoxicity against human colon cancer cells assessed as cell growth inhibition after 48 hrs by SRB assay; format: functional; details: Cancer cell lines
[12] = cells; details: Homo sapiens, HCT-116, 72 h
Description: Cytotoxicity against human HCT116 cells assessed as reduction in cell viability after 72 hrs by MTT assay

[13] = Cytotoxicity against human CNS cancer cells assessed as cell growth inhibition after 48 hrs by SRB assay; format: functional; details: Cancer cell lines
[14] = Cytotoxicity against human renal cancer cells assessed as cell growth inhibition after 48 hrs by SRB assay; format: functional; details: Cancer cell lines
[15] = Cytotoxicity against human leukemia cells assessed as cell growth inhibition after 48 hrs by SRB assay; format: functional
[16] = Cytotoxicity against human breast cancer cells assessed as cell growth inhibition after 48 hrs by SRB assay; format: functional; details: Cancer cell lines
[17] = Cytotoxicity against human prostate cancer cells assessed as cell growth inhibition after 48 hrs by SRB assay; format: functional; details: Cancer cell lines
[18] = system: CT26; assay: Potency index, ratio of (-)-gossypol IC50 to compound IC50 for mouse CT26 cells; format: functional
[19] = system: MCF7; assay: Potency index, ratio of (-)-gossypol IC50 to compound IC50 for human MCF7 cells; format: functional
[20] = target: Apoptosis regulator Bcl-2 (Homo sapiens, UniProt P10415); assay: Inhibition of FAM-Bid binding to human BCL2 expressed in Escherichia coli BL21 after 30 mins by fluorescence polarization assay
[21] = Stability in rat liver microsomes at 4.75 uM preincubated for 5 mins followed by NADPH addition after 60 mins by HPLC analysis; format: ADME; details: 1 h
[22] = Chemical stability of compound in pH 1 to 10 Hcl solution after 3 hrs by HPLC analysis; format: physicochemical; details: buffer, pH 1, 3 h
[23] = Stability in human liver microsomes at 4.75 uM preincubated for 5 mins followed by NADPH addition after 60 mins by HPLC analysis; format: ADME; details: 1 h
[24] = system: RXF 393; assay: Cytotoxicity against human RXF393 cells assessed as cell growth inhibition after 48 hrs by SRB assay; format: functional, cell-based
[25] = system: SNB-19; assay: Cytotoxicity against human SNB19 cells assessed as cell growth inhibition after 48 hrs by SRB assay; format: functional, cell-based
[26] = system: U-251; assay: Cytotoxicity against human U251 cells assessed as cell growth inhibition after 48 hrs by SRB assay; format: functional, cell-based
[27] = system: HOP-92; assay: Cytotoxicity against human HOP92 cells assessed as cell growth inhibition after 48 hrs by SRB assay; format: functional, cell-based
[28] = system: NCI60; assay: Cytotoxicity against human NCI60 cells assessed as cell growth inhibition up to 10 uM after 48 hrs by SRB assay; format: functional, cell-based

Induced myeloid leukemia cell differentiation protein Mcl-1, sequence (Q07820 whole entry): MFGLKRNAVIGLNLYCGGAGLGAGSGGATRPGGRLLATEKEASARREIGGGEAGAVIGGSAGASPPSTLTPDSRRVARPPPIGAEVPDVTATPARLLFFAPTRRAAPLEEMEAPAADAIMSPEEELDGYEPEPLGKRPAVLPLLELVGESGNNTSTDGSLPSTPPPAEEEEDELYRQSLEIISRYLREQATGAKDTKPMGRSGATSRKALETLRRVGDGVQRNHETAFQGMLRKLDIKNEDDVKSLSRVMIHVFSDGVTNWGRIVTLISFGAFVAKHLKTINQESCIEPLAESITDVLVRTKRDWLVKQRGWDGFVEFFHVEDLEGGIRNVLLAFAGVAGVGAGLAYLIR
Apoptosis regulator Bcl-2, sequence (P10415 whole entry): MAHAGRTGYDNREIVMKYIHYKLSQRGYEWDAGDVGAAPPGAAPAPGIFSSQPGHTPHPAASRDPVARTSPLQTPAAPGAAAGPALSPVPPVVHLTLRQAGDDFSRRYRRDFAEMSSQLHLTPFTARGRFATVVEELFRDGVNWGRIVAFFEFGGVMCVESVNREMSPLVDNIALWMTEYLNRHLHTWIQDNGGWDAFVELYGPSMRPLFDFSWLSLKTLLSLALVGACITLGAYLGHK

Row | IC50 [6] [µM] | Ki [6] [µM] | IC50 [8] [µM] | IC50 [12] [µM] | IC50 [20] [µM] | Ki [20] [µM] | SMILES | GI50 [1] [µM] | GI50 [3] [µM] | GI50 [4] [µM] | GI50 [5] [µM] | Activity [9] | Activity [10] | GI50 [11] [µM] | GI50 [13] [µM] | GI50 [14] [µM] | GI50 [15] [µM] | GI50 [16] [µM] | GI50 [17] [µM] | IC50 ([2]; Mus musculus, CT26, 72 h) [µM] | IC50 ([7]; Homo sapiens, DU-145, 72 h) [µM] | further results
1 | > 4 | > 0.78 | – | – | – | – | CC1(C)CCC(CN2CCN(c3ccc(C(=O)NS(=O)(=O)c4ccc(NCC5CCOCC5)c([N+](=O)[O-])c4)c(Oc4cnc5[nH]ccc5c4)c3)CC2)=C(c2ccc(Cl)cc2)C1 [VENETOCLAX] | 2.7 | 0.2 to 5.1 | 3.33 | 1.75 | – | – | 2.85 | 3.35 | 2.6 | 2.11 | 2.77 | 3.51 | – | – | –
2 | – | – | 11.5 | 17.3 | – | – | Cc1cc2c(c(O)c1-c1c(C)cc3c(c1O)/C(=C/NCCCCCCC(=O)O)C(=O)C(O)=C3C(C)C)/C(=C/NCCCCCCC(=O)O)C(=O)C(O)=C2C(C)C | – | – | – | – | Non-Toxic | Non-Toxic | – | – | – | – | – | – | 2.08 | 19.1 | Ratio IC50 [18]: 11
3 | 0.947 | 0.18 | 4.39 | 2.75 | 0.825 | 0.341 | COC(=O)CCCN/C=C1\C(=O)C(O)=C(C(C)C)c2cc(C)c(-c3c(C)cc4c(c3O)/C(=C/NCCCC(=O)OC)C(=O)C(O)=C4C(C)C)c(O)c21 (stereo in doubt; 16) | 0.48 | 0.1 to 1.7 | 0.59 | 0.99 | Non-Toxic | Non-Toxic | 0.46 | 0.6 | 0.82 | 0.56 | 0.74 | 0.41 | 8.39 | 2.39 | Ratio IC50 [19]: 12; Stability [21]: Stable; Stability [22]: Stable; Stability [23]: Stable
4 | 0.74 | 0.139 | 8.22 | 3.38 | 0.483 | 0.182 | COC(=O)CCCCN/C=C1\C(=O)C(O)=C(C(C)C)c2cc(C)c(-c3c(C)cc4c(c3O)/C(=C/NCCCCC(=O)OC)C(=O)C(O)=C4C(C)C)c(O)c21 | 1.05 | – | 1.26 | 1.42 | Non-Toxic | Non-Toxic | 1 | 1.27 | 1.14 | 0.81 | 1.08 | 1.09 | 16.6 | 7.36 | growth inhibition (GI) [24]: Active; growth inhibition (GI) [25]: Active; growth inhibition (GI) [26]: Active; growth inhibition (GI) [27]: Active; growth inhibition (GI) [28]: Active

Row | SMILES | IC50 [6] [µM] | Ki [6] [µM] | IC50 [8] [µM] | IC50 [12] [µM] | IC50 [20] [µM] | Ki [20] [µM] | GI50 [1] [µM] | GI50 [3] [µM] | GI50 [4] [µM] | GI50 [5] [µM] | Activity [9] | Activity [10] | GI50 [11] [µM] | GI50 [13] [µM] | GI50 [14] [µM] | GI50 [15] [µM] | GI50 [16] [µM] | GI50 [17] [µM] | IC50 ([2]; Mus musculus, CT26, 72 h) [µM] | IC50 ([7]; Homo sapiens, DU-145, 72 h) [µM] | further results
5 | Cc1cc2c(C(C)C)c(O)c(O)c(C=O)c2c(O)c1-c1c(C)cc2c(C(C)C)c(O)c(O)c(C=O)c2c1O [GOSSYPOL] | 0.856 | 0.162 | 54 | 3.59 | – | – | 2.85 | 0.8 to 5.1 | 3.5 | 3.22 | Toxic | Toxic | 3.19 | 2.97 | 3.16 | 2.47 | – | – | – | – | IC50 ([2]; ct26): 23.2 µM and 61.9 µM and 46.8 µM; IC50 ([7]; du-145): 7.97 µM and 19.2 µM and 7.93 µM
